Measurements reported in patent publication US4788206A, “Pentadieneamides” (Hoffmann-La Roche Inc., priority 1987, dated 1988).

Assays:
[1] = tested on: PAF-Induced Bronchoconstriction; assay: PAF Induced Bronchoconstriction Assay; format: in vivo, guinea pig; conditions: for inhibition in vivo at 50 mg/kg: Cavia porcellus, po, 2-hour pretreatment, read-out: Percent Inhib. of PAF-Induced Bronchoconstriction, 50 mg/Kg p.o.; for inhibition in vivo at 50 mg/kg / Percent Inhib. of PAF-Induced Bronchoconstriction, 50 mg/Kg p.o. (6 hr) / Percent Inhib. of PAF-Induced Bronchoconstriction, 50 mg/Kg p.o. (8 hr): 50 mg/Kg p.o.; for Percent Inhib. of PAF-Induced Bronchoconstriction, mg/Kg i.v.: i.v. (dose not given), 1 minute pretreatment, PAF 1.0 μg/kg i.v.
Procedure: PAF Induced Bronchoconstriction Assay
Male animals (Hartlet Strain 400-500 g) were anesthetized with urethane (2 g/kg. i.p.). Each animals' trachea was cannulated and the guinea pigs were repirated using a Harvard small animal rodent respirator (3.0 cc stroke volume, 40 breaths per min.). Tracheal pressure was recorded from a cannula inserted in the trachea and connected to a Statham Pressure Transducer.
The jugular vein was cannulated for administering compounds. Spontaneous breathing was arrested with succinylcholine (1.2 mg/kg. i.v.) administered 2 minutes prior to intravenous injection of platelet activating factor (PAF).
For, the intravenous testing, the guinea pig is given a 5-minute pretreatment with propranolol at a dose of 0.1 mg/kg intravenously. The test compound is administered with a 1 minute pretreatment prior to intravenous challenge with PAF. The animal is than challenged with a 1.0 μg/kg intravenous dose of PAF and the change is tracheal pressure is measured.
For the oral testing, the procedure includes a 2-hour pretreatment period with the test compound administered through an oral gavage tube. Propranolol or succinylcholine and PAF are administered intravenously, and the change in tracheal pressure measured.
The change is tracheal pressure is determined by subtracting the steady state baseline achieved after administration of succinylcholine from the peak bronchoconstriction seen after challenge with PAF. The mean is calculated for each test compound and compared to the mean of the control animals to give the percent inhibition of bronchoconstriction. The standard error is calcuated as the standard error of the mean.

[2] = target: T1, PAF Binding, dog platelets (Canis lupus familiaris, UniProt A0A8I3NSH0); assay: PAF Binding Assay (inhibition of 3H-PAF binding to washed dog platelets); conditions: dog platelets, 3H-PAF, 10 minutes at room temperature; read-out: Inhib of PAF Binding IC50
T1 construct: Washed platelets were prepared by resuspending the platelet pellet once with PBS containing 1 mM EDTA; from tissue; host or cells: washed platelets from dog blood
T1 sequence (A0A8I3NSH0 1-343): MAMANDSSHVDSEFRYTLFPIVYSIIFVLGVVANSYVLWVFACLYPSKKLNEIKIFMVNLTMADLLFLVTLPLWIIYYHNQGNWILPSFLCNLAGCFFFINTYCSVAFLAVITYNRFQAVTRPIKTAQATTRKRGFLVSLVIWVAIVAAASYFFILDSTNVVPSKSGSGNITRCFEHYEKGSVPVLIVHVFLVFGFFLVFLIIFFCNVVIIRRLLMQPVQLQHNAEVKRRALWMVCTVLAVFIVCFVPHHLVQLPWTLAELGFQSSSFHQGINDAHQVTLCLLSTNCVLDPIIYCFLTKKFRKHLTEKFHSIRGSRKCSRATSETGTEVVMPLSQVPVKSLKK
Procedure: The binding assay was done in 400 μl polyethylene microcentrifuge tubes (Beckman) containing 50 μl of an oil mixture of 2 parts Siliconol AR200 (Serva): 1 part Silicone Fluid (Arthur H. Thomas). Buffer, standards, or analogs (150 μl total volume) were added to the tubes. Radiolabelled ^3 H-PAF (50 μl) was then added to the tubes. The reaction was started by the addition of 50 μl of dog platelets (2×10^7 platelets). The tubes were capped, inverted several times to mix, and incubated for 10 minutes at room temperature. The platelets were separated from the incubation mixture by centrifuging 1 minute in a Beckman Microfuge B centrifuge. The tip of the microfuge tube was cut off, and the platelets were washed out of the tip with 200 μl of 50% methanol (Burdick and Jackson). Aquasol (NEN, 10 ml) was added and the radioactivity in the samples was determined using an LS 8100 Beckman liquid scintillation counter linked to a Techtran tape recorder. Data was processed through an in-house computer system. Alternatively, radioactivity was determined using a Searle Mark III liquid scintillation counter linked to a Iso-Data microprocessor.
(b) Preparation of Platelets
Blood was collected from anesthesized or unanesthesized dogs into 50 ml plastic centrifuge tubes containing 3.8% sodium citrate as the anticoagulant (1 volume of citrate/9 volumes of blood). The red cells were removed by centrifugation for 15 minutes at 600 rpm (100-125 g) at room temperature. An aliquot of the supernatant platelet rich plasma (PRP) was saved for cell counting and the remainder was acidified to PH 6.5 with 0.15M citric acid. The platelet pellet was obtained after a 10 minute centrifugation at 2000 rpm (1000 g) at room temperature. Washed platelets were prepared by resuspending the platelet pellet once with PBS containing 1 mM EDTA, centrifuging as noted, and then resuspending the platelets in 0.1% BSA-PBS. An aliquot of the washed platelets was counted. Platelets used for binding assays were diluted to 2×10^7 platelets/assay tube (4×10^8 platelets/ml). Platelet counting was done using a Royco Cell-Crit 921.

Row | SMILES | inhibition in vivo at 50 mg/kg [1] | Percent Inhib. of PAF-Induced Bronchoconstriction, mg/Kg i.v. [1] | IC50 [2] | Percent Inhib. of PAF-Induced Bronchoconstriction, 50 mg/Kg p.o. (6 hr) [1] | Percent Inhib. of PAF-Induced Bronchoconstriction, 50 mg/Kg p.o. (8 hr) [1]
1 | COc1ccc(/C(=C\C=C\C(=O)N[C@H](C)CCCc2cccnc2)C(C)C)cc1 [[R-(2E,4Z)]-5-(4-methoxyphenyl)-6-methyl-N-[1-methyl-4-(3-pyridinyl)butyl]-2,4-heptadienamide] | 71 ± 14% | 89 ± 3% | 0.04 µM |  | 
2 | COc1ccc(/C(=C/C=C/C(=O)N[C@H](C)CCCc2cccnc2)c2cccs2)cc1 [[R-(2E,4Z)]-5-(4-methoxyphenyl)-N-[1-methyl-4-(3-pyridinyl)butyl]-5-(2-thienyl)-2,4-pentadienamide] | 96 ± 2% | 97 ± 1% | 0.016 µM | 27 ± 6% | 
3 | COc1ccc(/C(=C\C=C\C(=O)N[C@H](C)CCCc2cccnc2)C2CC2)cc1 [[R-(2E,4Z)]-5-cyclopropyl-5-(4-methoxyphenyl)-N-1-methyl-4-(3-pyridinyl)butyl]-2,4-pentadienamide] | 63 ± 19% | 85 ± 4% | 0.07 µM |  | 
4 | COc1ccc(C(=C/C=C/C(=O)N[C@H](C)CCCc2cccnc2)c2ccc(OC)c(OC)c2)cc1OC [[R-(E)]-5,5-bis(3,4-dimethoxyphenyl)-N-[1-methyl-4-(3-pyridinyl)butyl]-2,4-pentadienamide] | 66 ± 19% | 99 ± 1% | 0.05 µM |  | 
5 | Cc1ccc(C(=C/C=C/C(=O)N[C@H](C)CCCc2cccnc2)c2ccc(C)cc2)cc1 [[R-(E)]-5,5-bis(4-methylphenyl)-N-[1-methyl-4-(3-pyridinyl)butyl]-2,4-pentadienamide] | 91 ± 7% | 97 ± 3% | 0.25 µM |  | 14 ± 16%
6 | CC[C@H](CCCc1cccnc1)NC(=O)/C=C/C=C(c1ccc(OC)cc1)c1ccc(OC)cc1 [[R-(E)]-N-[1-ethyl-4-(3-pyridinyl)butyl]-5,5-bis(4-methoxyphenyl)-2,4-pentadienamide] | 99 ± 1% | 99 ± 0.4% | 0.12 µM |  | 85 ± 12%
7 | CCCCCC(=C/C=C/C(=O)N[C@H](C)CCCc1cccnc1)CCCCC [[R-(E)]-N-[1-methyl-4-(3-pyridinyl)butyl]-5-pentyl-2,4-decadienamide] | 4 ± 4% | 78 ± 7% | 0.1 µM |  | 
8 | CCCCC/C(=C\C=C\C(=O)N[C@H](C)CCCc1cccnc1)c1ccc(OC)c(OC)c1 [[R-(E,E)]-5-(3,4-dimethoxyphenyl)-N-[1-methyl-4-(3-pyridinyl)butyl]-2,4-decadienamide] |  | 99 ± 0.4% | 0.006 µM |  | 
9 | CCCCC/C(=C\C=C\C(=O)N[C@H](C)CCCc1cccnc1)c1cccc(F)c1 [[R-(E,E)]-5-(3-fluorophenyl)-N-[1-methyl-4-(3-pyridinyl)butyl]-2,4-decadienamide] |  | 93 ± 0.9% | 0.03 µM |  | 
10 | CCCC/C(=C\C=C\C(=O)N[C@H](C)CCCc1cccnc1)c1cccc(OC)c1 [[R-(E,E)]-5-(3-methoxyphenyl)-N-[1-methyl-4-(3-pyridinyl)butyl]-2,4-nonadienamide] |  | 91 ± 5% | 0.015 µM |  | 
11 | CCCCC/C(=C\C=C\C(=O)N[C@H](C)CCCc1cccnc1)c1ccc(F)cc1 [[R-(E,E)]-5-(4-fluorophenyl)-N-[1-methyl-4-(3-pyridinyl)butyl]-2,4-decadienamide] |  | 95 ± 1% | 0.04 µM |  | 
12 | COc1ccc(/C(=C/C=C/C(=O)N[C@H](C)CCCc2cccnc2)C(C)C)cc1 [[R-(E,E)]-5-(4-methoxyphenyl)-6-methyl-N-[1-methyl-4-(3-pyridinyl)butyl]-2,4-heptadienamide] |  | 38 ± 11% | 0.03 µM |  | 
13 | CCCCCCCCCCCC/C(=C\C=C\C(=O)N[C@H](C)CCCc1cccnc1)c1ccc(OC)cc1 [[R-(E,E)]-5-(4-methoxyphenyl)-N-[1-methyl-4-(3-pyridinyl)butyl]-2,4-heptadecadienamide] |  | 28 ± 2% | 0.045 µM |  | 
14 | CC/C(=C\C=C\C(=O)N[C@H](C)CCCc1cccnc1)c1ccc(OC)cc1 [[R-(E,E)]-5-(4-methoxyphenyl)-N-[1-methyl-4-(3-pyridinyl)butyl]-2,4-heptadienamide] | 84 ± 2% | 72 ± 13% | 0.03 µM |  | 
15 | COc1ccc(/C(C)=C/C=C/C(=O)N[C@H](C)CCCc2cccnc2)cc1 [[R-(E,E)]-5-(4-methoxyphenyl)-N-[1-methyl-4-(3-pyridinyl)butyl]-2,4-hexadienamide] |  | 42 ± 16% | 0.025 µM |  | 
16 | CCCC/C(=C\C=C\C(=O)N[C@H](C)CCCc1cccnc1)c1ccc(OC)cc1 [[R-(E,E)]-5-(4-methoxyphenyl)-N-[1-methyl-4-(3-pyridinyl)butyl]-2,4-nonadienamide] | 98 ± 1% | 99 ± 1% | 0.014 µM |  | 
17 | CCC/C(=C\C=C\C(=O)N[C@H](C)CCCc1cccnc1)c1ccc(OC)cc1 [[R-(E,E)]-5-(4-methoxyphenyl)-N-[1-methyl-4-(3-pyridinyl)butyl]-2,4-octadienamide] | 9 ± 13% | 86 ± 7% | 0.05 µM |  | 
18 | COc1ccc(/C=C/C=C/C(=O)N[C@H](C)CCCc2cccnc2)cc1 [[R-(E,E)]-5-(4-methoxyphenyl)-N-[1-methyl-4-(3-pyridinyl)butyl]-2,4-pentadienamide] |  | 17 ± 13% | 0.03 µM |  | 
19 | CCCCCCCC/C(=C\C=C\C(=O)N[C@H](C)CCCc1cccnc1)c1ccc(OC)cc1 [[R-(E,E)]-5-(4-methoxyphenyl)-N-[1-methyl-4-(3-pyridinyl)butyl]-2,4-tridecadienamide] | 84 ± 8% | 98 ± 1% | 0.005 µM |  | 
20 | CCCCCC/C(=C\C=C\C(=O)N[C@H](C)CCCc1cccnc1)c1ccc(OC)cc1 [[R-(E,E)]-5-(4-methoxyphenyl)-N-[1-methyl-4-(3-pyridinyl)butyl]-2,4-undecadienamide] | 96 ± 1% | 100 ± 1% | 0.009 µM |  | 
21 | COc1ccc(/C(=C/C=C/C(=O)N[C@H](C)CCCc2cccnc2)C2CCCCC2)cc1 [[R-(E,E)]-5-cyclohexyl-5-(4-methoxyphenyl)-N-[1-methyl-4-(3-pyridinyl)butyl]-2,4-pentadienamide] | 97 ± 1% | 73 ± 17% | 0.02 µM | 12 ± 10% | 
